Like-named read-outs stand apart in the source and are kept apart here. Where a SMILES comes first, the peptide text is derived from it. Bridges are numbered along the chain shown (N, C = ends).
Molecular target: human α7-containing nAChRs (Homo sapiens, UniProt P36544)
Experiment: cell-based
Type: cell-based

Chain of human α7-containing nAChRs (P36544 23-502 limits assumed): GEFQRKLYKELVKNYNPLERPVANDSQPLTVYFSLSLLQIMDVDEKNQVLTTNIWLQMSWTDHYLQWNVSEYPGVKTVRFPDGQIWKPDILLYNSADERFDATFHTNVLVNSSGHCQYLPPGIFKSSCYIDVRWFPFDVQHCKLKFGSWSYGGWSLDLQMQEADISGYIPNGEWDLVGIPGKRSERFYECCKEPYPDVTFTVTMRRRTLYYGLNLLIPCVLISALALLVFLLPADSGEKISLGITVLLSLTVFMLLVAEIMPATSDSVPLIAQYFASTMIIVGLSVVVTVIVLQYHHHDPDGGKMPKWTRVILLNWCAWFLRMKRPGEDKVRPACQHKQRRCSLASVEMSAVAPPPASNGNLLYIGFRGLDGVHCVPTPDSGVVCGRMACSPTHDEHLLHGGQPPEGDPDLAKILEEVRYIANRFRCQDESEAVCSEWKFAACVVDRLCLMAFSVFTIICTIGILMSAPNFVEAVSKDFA

| SMILES | IC50 [µM] | IC50 (SEM) [µM] |
| --- | --- | --- |
| CC(C)[C@H](NC(=O)[C@@H]1CSSC[C@@H]2NC(=O)[C@@H](NC(=O)[C@@H](N)CO)CSSC[C@H](NC(=O)[C@H](C)NC(=O)[C@@H]3CCCN3C(=O)[C@H](CC(N)=O)NC(=O)[C@H](CCCNC(=N)N)NC(=O)[C@H](C)NC2=O)C(=O)N[C@@H](C)C(=O)N[C@@H](Cc2c[nH]cn2)C(=O)N[C@@H](CC(N)=O)C(=O)N[C@@H](Cc2c[nH]cn2)C(=O)N2CCC[C@H]2C(=O)N1)C(N)=O [gAusIA [R10A]] (H-SCCARNPACAHNHPCV-NH2; disulfide 2-9, 3-15) | > 100 | – |
| CC(C)[C@H](NC(=O)[C@@H]1CSSC[C@@H]2NC(=O)[C@@H](NC(=O)[C@@H](N)CO)CSSC[C@H](NC(=O)[C@H](C)NC(=O)[C@H](C)NC(=O)[C@H](CC(N)=O)NC(=O)[C@H](CCCNC(=N)N)NC(=O)[C@H](C)NC2=O)C(=O)N[C@@H](CCCNC(=N)N)C(=O)N[C@@H](Cc2c[nH]cn2)C(=O)N[C@@H](CC(N)=O)C(=O)N[C@@H](Cc2c[nH]cn2)C(=O)N2CCC[C@H]2C(=O)N1)C(N)=O [gAusIA [P7A]] (H-SCCARNAACRHNHPCV-NH2; disulfide 2-9, 3-15) | > 100 | – |
| CC(C)[C@H](NC(=O)[C@@H]1CSSC[C@H](NC(=O)[C@@H](N)CO)C(=O)N[C@H]2CSSC[C@H](NC(=O)[C@H](C)NC(=O)[C@@H]3CCCN3C(=O)[C@H](CC(N)=O)NC(=O)[C@H](C)NC2=O)C(=O)N[C@@H](CCCNC(=N)N)C(=O)N[C@@H](Cc2c[nH]cn2)C(=O)N[C@@H](CC(N)=O)C(=O)N[C@@H](Cc2c[nH]cn2)C(=O)N2CCC[C@H]2C(=O)N1)C(N)=O [rAusIA [∆5]] (H-SCCANPACRHNHPCV-NH2; disulfide 2-14, 3-8) | – | 51 ± 11.6 |
| CC[C@H](C)[C@@H]1NC(=O)[C@H](CC(N)=O)NC(=O)[C@@H]2CCCN2C(=O)[C@H](CC(N)=O)NC(=O)[C@H](CC(N)=O)NC(=O)[C@H](C(C)C)NC(=O)[C@H](CCCNC(=N)N)NC(=O)[C@@H]2CSSC[C@H](NC(=O)CNC(=O)[C@@H](N)CO)C(=O)N[C@@H](CSSC[C@@H](C(N)=O)NC1=O)C(=O)N[C@@H](CCCNC(=N)N)C(=O)N[C@@H](CC(N)=O)C(=O)N1CCC[C@H]1C(=O)N[C@@H](C)C(=O)N2 [gLsIA [S5R]] (H-SGCCRNPACRVNNPNIC-NH2; disulfide 3-9, 4-17) | – | 0.24 ± 0.04 |
| CC[C@H](C)[C@@H]1NC(=O)[C@H](CC(N)=O)NC(=O)[C@@H]2CCCN2C(=O)[C@H](CC(N)=O)NC(=O)[C@H](CC(N)=O)NC(=O)[C@H](C(C)C)NC(=O)[C@H](CCCNC(=N)N)NC(=O)[C@@H]2CSSC[C@H](NC(=O)CNC(=O)[C@@H](N)CO)C(=O)N[C@@H](CSSC[C@@H](C(N)=O)NC1=O)C(=O)N[C@@H](CO)C(=O)N[C@@H](CCCNC(=N)N)C(=O)N[C@@H](CC(N)=O)C(=O)N1CCC[C@H]1C(=O)N[C@@H](C)C(=O)N2 [gLsIA [∇R6]] (H-SGCCSRNPACRVNNPNIC-NH2; disulfide 3-10, 4-18) | – | 8 ± 0.52 |
